According to the NIST ThermoML archive (doi:10.1016/j.fluid.2006.05.032):

Conditions: Liquid, Vibrating tube method

CCCO [propan-1-ol]
mass density [kg/m3]
Conditions	293.15 K	303.15 K	313.15 K	323.15 K	333.15 K	343.15 K	353.15 K
100 kPa	803.5	795.2	787.6	779.3	770.5	761	752.2
5000 kPa	807.3	799.2	791.9	783.7	775.4	766	757.6
10000 kPa	810.9	802.9	795.9	788	780	770.7	762.7
15000 kPa	814.3	806.7	799.7	792	784.3	775.3	767.6
20000 kPa	817.7	810.1	803.3	795.8	788.4	779.6	772.1
25000 kPa	821	813.6	806.8	799.7	792	783.7	776.3
30000 kPa	824	816.7	810.2	803.2	795.7	787.6	780.4
35000 kPa	827	819.8	813.5	806.6	799.2	791.2	784.1
40000 kPa	829.9	822.9	816.6	809.9	802.6	794.7	787.7
45000 kPa	832.7	825.8	819.7	813	805.9	798.3	791.8
50000 kPa	835.4	828.8	822.7	816.1	809.1	801.6	795.1
55000 kPa	838.1	831.6	825.5	819	812.3	804.6	798.5
60000 kPa	840.7	834.2	828.3	821.8	815.2	807.7	801.7
65000 kPa	843.2	837	831	824.6	818.1	810.6	805

Cc1ccccc1 [toluene]
mass density [kg/m3]
Conditions	293.15 K	303.15 K	313.15 K	323.15 K	333.15 K	343.15 K	353.15 K
100 kPa	867.1	857.5	847.8	838.4	828.8	819.4	809.7
5000 kPa	870.6	861.4	852	842.7	833.5	824.5	815.1
10000 kPa	874.2	865.1	856.1	847	838.2	829.3	820.3
15000 kPa	877.6	869	859.9	851.1	842.6	833.9	825.3
20000 kPa	881.1	872.4	863.5	855	846.6	838.1	829.9
25000 kPa	884.2	875.8	867.1	858.9	850.5	842.3	834
30000 kPa	887.3	879	870.5	862.5	854.3	846.2	838.2
35000 kPa	890.3	882.1	873.8	866	857.9	850.1	842.2
40000 kPa	893.3	885.2	877	869.4	861.4	853.7	846.1
45000 kPa	896.1	888.2	880.2	872.5	864.8	857.4	849.8
50000 kPa	898.9	891.1	883.3	875.7	868.1	860.8	853.3
55000 kPa	901.6	894	886.2	878.7	871.4	864.2	856.7
60000 kPa	904.2	896.7	889	881.7	874.5	867.4	860.1
65000 kPa	906.7	899.2	891.8	884.6	877.5	870.3	863.5
